Results on 35 compounds are retold here after patent US20250313563A1, “GLYCOGEN SYNTHASE KINASE 3 INHIBITORS AND USES THEREOF” (The Broad Institute, Inc., priority 2022, published 2025).

Where two headings read alike, the source gives them in different places.

In test [1] the target is GSK3α (GST-full length GSK3α) (Homo sapiens (Human), UniProt P49840). Description: GSK3α TR-FRET kinase assay. The test is classed as biochemical. The method, boiled down: (§1)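 In this time-resolved FRET format, kinase reactions contained 200 nM biotinylated, S645-phosphorylated glycogen synthase 631-650 peptide and either isoform-specific ATP (2 μM GSK3b, 4 μM GSK3α) or 1 mM ATP. They were quenched with EDTA after 100 min at ambient temperature. Inhibition curves gave IC50 values.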
GSK3α (GST-full length GSK3α), sequence (P49840 whole entry, canonical isoform): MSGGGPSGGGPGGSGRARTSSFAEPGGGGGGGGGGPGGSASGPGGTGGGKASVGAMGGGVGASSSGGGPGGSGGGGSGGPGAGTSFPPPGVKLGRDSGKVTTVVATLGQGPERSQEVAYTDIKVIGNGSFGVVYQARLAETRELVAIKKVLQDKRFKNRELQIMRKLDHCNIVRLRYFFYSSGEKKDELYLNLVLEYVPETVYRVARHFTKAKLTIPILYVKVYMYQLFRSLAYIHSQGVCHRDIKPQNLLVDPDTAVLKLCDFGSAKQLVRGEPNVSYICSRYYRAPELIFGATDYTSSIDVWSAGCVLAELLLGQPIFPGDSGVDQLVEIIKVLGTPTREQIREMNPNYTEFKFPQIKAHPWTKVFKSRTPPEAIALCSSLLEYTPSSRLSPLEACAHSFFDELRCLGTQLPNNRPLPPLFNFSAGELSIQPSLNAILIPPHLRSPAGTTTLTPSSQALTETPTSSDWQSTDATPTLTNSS

The target of test [2] is GSK3b (GST-full length GSK3b) (Homo sapiens (Human), UniProt P49841). Description: GSK3b TR-FRET kinase assay. The test is classed as biochemical. The method, boiled down:
as §1
A general note: Time-resolved FRET reads energy transfer from a long-lived donor to a nearby acceptor.

Setting [3] is: 1 nM GSK3α, 4 μM ATP, 30 minute preincubation, geometric mean, read-out: GSK3-A TR-FRET BIOCHEMICAL (TR-FRET), GMean, IC50.
[4] abbreviates: 1 nM GSK3b, 2 μM ATP, 30 minute preincubation, geometric mean, read-out: GSK3-B TR-FRET BIOCHEMICAL (TR-FRET), GMean, IC50.
The mark [5] stands for this setting: read-out: GSK3-A (TR-FRET 1 mM ATP), GMean, IC50, 1 mM ATP, geometric mean.
Setting [6] is: read-out: GSK3-B (TR-FRET 1 mM ATP), GMean, IC50, 1 mM ATP, geometric mean.
Where [7] appears, read: 1 nM GSK3α, 4 μM ATP, 30 minute preincubation, Table 16, read-out: GSK3-A TR-FRET BIOCHEMICAL (TR-FRET).
The mark [8] stands for this setting: 1 nM GSK3b, 2 μM ATP, 30 minute preincubation, Table 16, read-out: GSK3-B TR-FRET BIOCHEMICAL (TR-FRET).

GSK3b (GST-full length GSK3b), sequence (P49841 whole entry): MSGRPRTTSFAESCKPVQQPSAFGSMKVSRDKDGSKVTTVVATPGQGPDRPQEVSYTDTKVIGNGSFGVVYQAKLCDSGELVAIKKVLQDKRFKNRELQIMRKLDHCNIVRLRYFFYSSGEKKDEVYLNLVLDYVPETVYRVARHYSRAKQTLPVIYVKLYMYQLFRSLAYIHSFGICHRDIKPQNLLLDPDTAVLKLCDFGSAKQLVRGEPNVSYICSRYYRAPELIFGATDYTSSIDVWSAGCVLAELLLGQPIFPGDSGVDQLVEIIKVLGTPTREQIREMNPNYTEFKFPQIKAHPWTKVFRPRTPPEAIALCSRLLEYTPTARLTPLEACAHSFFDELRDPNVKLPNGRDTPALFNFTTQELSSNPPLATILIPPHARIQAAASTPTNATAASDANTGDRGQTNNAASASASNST

For `CC[C@]1(c2cccc(N3CCOCC3)c2)C2=C(CC(C)(C)NC2=O)Nc2n[nH]c(C(F)(F)F)c21` [Compound 949000], the IC50 in test [1] (setting [3]) and in test [2] (setting [4]) was 100 to 1000 nM throughout.
As to `CCC1(c2cccc(-c3ccnc(C)c3)c2)C2=C(CC(C)(C)NC2=O)Nc2n[nH]c(F)c21` (centres unmarked) [Compound 949001], the IC50 in test [1] (setting [3]) and in test [2] (setting [4]) was 100 to 1000 nM throughout.
With `CC[C@]1(c2cccc(-c3cnn(C)c3)c2)C2=C(CC(C)(C)NC2=O)Nc2n[nH]c(F)c21` [Compound 949002], the IC50 in test [1] (setting [3]) was 1000 to 5000 nM; in test [2] (setting [4]) it was greater than 5000 nM.
For `CCC1(c2cccc(-c3cncn3C)c2)C2=C(CC(C)(C)NC2=O)Nc2n[nH]c(C(F)(F)F)c21` (centres unmarked) [Compound 949003], in that order: 100 to 1000 nM and 100 to 1000 nM.
The matching figures for `CCC1(c2cccc(-c3ccnc(C)c3)c2)C2=C(CC(C)(C)N(C)C2=O)Nc2n[nH]cc21` (centres unmarked) [Compound 949004]: no more than 100 nM and 100 to 1000 nM.
Take `CCC1(c2cccc(-c3cn(C)nc3C)c2)C2=C(CC(C)(C)N(C)C2=O)Nc2n[nH]cc21` (centres unmarked) [Compound 949005]: the IC50 in test [1] (setting [3]) is no more than 100 nM; in test [1] (setting [5]) it was no more than 100 nM; in test [2] (setting [4]), no more than 100 nM; in test [2] (setting [6]), 1000 to 5000 nM.
Regarding `CC[C@]1(c2cccc(C(F)F)c2)C2=C(CC(C)(C)NC2=O)Nc2n[nH]cc21` [Compound 949006], the IC50 in test [1] (setting [3]) was no more than 100 nM; in test [1] (setting [5]) it was 100 to 1000 nM; in test [2] (setting [4]), 100 to 1000 nM; in test [2] (setting [6]) it was greater than 5000 nM.
Regarding `CC[C@@]1(c2cccc(C(F)F)c2)C2=C(CC(C)(C)NC2=O)Nc2n[nH]cc21` [Compound 949007], the values for the IC50 in test [1] (setting [3]) and in test [2] (setting [4]) were 1000 to 5000 nM and greater than 5000 nM, respectively.
Consider `CCC1(c2cccc(-c3cn(C)nc3C)c2)C2=C(CC(C)(C)N(C)C2=O)Nc2n[nH]cc21` (centres unmarked) [Compound 949008], for which the IC50 is 1000 to 5000 nM in test [1] (setting [3]) and greater than 5000 nM in test [2] (setting [4]).
For the compound `CCC1(c2cccc(-c3ccnc(C)c3)c2)C2=C(CC(C)(C)N(C)C2=O)Nc2n[nH]cc21` (centres unmarked) [Compound 949009], the IC50 in test [1] (setting [3]) and in test [2] (setting [4]) was greater than 5000 nM in each case.
As for `CCC1(c2cccc(-c3cncn3C)c2)C2=C(CC(C)(C)NC2=O)Nc2n[nH]c(C(F)(F)F)c21` (centres unmarked) [Compound 949010], the IC50 in test [1] (setting [3]), in test [1] (setting [5]), in test [2] (setting [4]) and in test [2] (setting [6]) was no more than 100 nM each time.
With `CCC1(c2cccc(-c3cnn(C)c3)c2)C2=C(CC(C)(C)NC2=O)Nc2n[nH]c(F)c21` (centres unmarked) [Compound 949011], the IC50 in test [1] (setting [3]) was no more than 100 nM; in test [2] (setting [4]) it was 100 to 1000 nM.
In the case of `CC[C@@]1(c2cccc(-c3ccnc(C)c3)c2)C2=C(CC(C)(C)NC2=O)Nc2n[nH]c(F)c21` [Compound 949012], the figures for the IC50 in test [1] (setting [3]) and in test [2] (setting [4]) were no more than 100 nM and 100 to 1000 nM, respectively.
The matching figures for `CC[C@@]1(c2cccc(N3CCOCC3)c2)C2=C(CC(C)(C)NC2=O)Nc2n[nH]c(C(F)(F)F)c21` [Compound 949013]: no more than 100 nM and no more than 100 nM.
For `CCC1(c2cccc(C(F)(F)F)c2)C2=C(CCN(c3cccc(C)c3)C2=O)Nc2n[nH]cc21` (centres unmarked) [Compound 949040], in that order: no more than 100 nM and 100 to 1000 nM.
With `CC[C@]1(c2cccc(C(F)(F)F)c2)C2=C(CCN(c3cccc(C)c3)C2=O)Nc2n[nH]cc21` [Compound 949041], the results for the IC50 in test [1] (setting [3]) and in test [2] (setting [4]) were 1000 to 5000 nM and greater than 5000 nM, respectively.
`CCC1(c2cccc(C3CCCC3)c2)C2=C(CC(C)(C)CC2=O)Nc2n[nH]cc21` (centres unmarked) [Compound 949082]: the IC50 was no more than 100 nM in test [1] (1 nM GSK3α, 4 μM ATP, 30 minute preincubation, Table 16, read-out: GSK3-A TR-FRET BIOCHEMICAL (TR-FRET), IC50) and no more than 100 nM in test [2] (1 nM GSK3b, 2 μM ATP, 30 minute preincubation, Table 16, read-out: GSK3-B TR-FRET BIOCHEMICAL (TR-FRET), IC50).
For `CC[C@]1(c2cccc(-c3cnn(CCOC)c3)c2)C2=C(CC(C)(C)NC2=O)Nc2n[nH]cc21` [Compound 949105], the IC50 in test [1] (setting [3]) is no more than 100 nM; in test [2] (setting [4]), 100 to 1000 nM.
For `CC[C@@]1(c2cccc(-c3cnn(C(C)(C)C)c3)c2)C2=C(CC(C)(C)NC2=O)Nc2n[nH]cc21` [Compound 949107], the IC50 in test [1] (setting [3]) and in test [2] (setting [4]) was greater than 5000 nM throughout.
In the case of `CC[C@]1(c2cccc(-c3cc(OC)ncc3F)c2)C2=C(CC(C)(C)NC2=O)Nc2n[nH]cc21` [Compound 949109], the values for the IC50 in test [1] (setting [3]) and in test [2] (setting [4]) were no more than 100 nM and 100 to 1000 nM, respectively.
The matching figures for `CCC1(c2cccc(-c3cn(C)nc3C(C)C)c2)C2=C(CC(C)(C)NC2=O)Nc2n[nH]cc21` (centres unmarked) [Compound 949111]: 100 to 1000 nM and 1000 to 5000 nM.
With `CC[C@]1(c2cccc(-c3cnn(C(C)(C)C)c3)c2)C2=C(CC(C)(C)NC2=O)Nc2n[nH]cc21` [Compound 949112], the IC50 in test [1] (setting [3]) was no more than 100 nM; in test [1] (setting [5]) it was greater than 5000 nM; in test [2] (setting [4]) it was 100 to 1000 nM; in test [2] (setting [6]), greater than 5000 nM.
As to `CC[C@]1(c2cccc(OCC(F)F)c2)C2=C(CC(C)(C)CC2=O)Nc2n[nH]cc21` [Compound 949113], the IC50 in test [1] (setting [7]) is 1000 to 5000 nM; in test [2] (setting [8]), greater than 5000 nM.
Turning to `CCC1(c2cccc(-c3cnn(CCOC)c3)c2)C2=C(CC(C)(C)NC2=O)Nc2n[nH]cc21` (centres unmarked) [Compound 949114], the IC50 in test [1] (setting [3]) is 1000 to 5000 nM; in test [2] (setting [4]), greater than 5000 nM.
The matching figures for `CCC1(c2cccc(-c3cc(OC)nc4ccccc34)c2)C2=C(CC(C)(C)NC2=O)Nc2n[nH]cc21` (centres unmarked) [Compound 949116]: greater than 5000 nM and greater than 5000 nM.
The matching figures for `CC[C@@]1(c2cccc(C(F)(F)F)c2)C2=C(CCN(c3ccc(C)cc3)C2=O)Nc2n[nH]cc21` [Compound 949118]: no more than 100 nM and 100 to 1000 nM.
For `CC[C@]1(c2cccc(C(F)(F)F)c2)C2=C(CCN(c3ccc(C)cc3)C2=O)Nc2n[nH]cc21` [Compound 949119], in that order: 1000 to 5000 nM and greater than 5000 nM.
Consider `CCC1(c2cccc(C(F)(F)F)c2)C2=C(CCN(c3cnc(OC)nc3)C2=O)Nc2n[nH]c(C)c21` (centres unmarked) [Compound 949126], for which the IC50 in test [1] (setting [3]) is no more than 100 nM; in test [2] (setting [4]) it was 100 to 1000 nM.
For `CC[C@]1(c2cccc(C(F)(F)F)c2)C2=C(CCN(c3cnc(OC)nc3)C2=O)Nc2n[nH]cc21` [Compound 949127], the IC50 is 1000 to 5000 nM in test [1] (setting [3]) and greater than 5000 nM in test [2] (setting [4]).
The matching figures for `CCC1(c2cccc(C(F)(F)F)c2)C2=C(CCN(c3ccccc3C)C2=O)Nc2n[nH]cc21` (centres unmarked) [Compound 949128]: no more than 100 nM and 100 to 1000 nM.
In the case of `CC[C@]1(c2cccc(C(F)(F)F)c2)C2=C(CCN(c3ccccc3C)C2=O)Nc2n[nH]cc21` [Compound 949129], the IC50 in test [1] (setting [3]) and in test [2] (setting [4]) was greater than 5000 nM in each case.
In the case of `CCC1(c2cccc(C3CN(C(C)=O)C3)c2)C2=C(CC(C)(C)CC2=O)Nc2n[nH]cc21` (centres unmarked) [Compound 949131], the IC50 in test [1] (setting [7]) is 100 to 1000 nM; in test [2] (setting [8]), 1000 to 5000 nM.
The matching figures for `CC[C@]1(c2cccc(C3CN(C(C)=O)C3)c2)C2=C(CC(C)(C)CC2=O)Nc2n[nH]cc21` [Compound 949132]: greater than 5000 nM and greater than 5000 nM.
In the case of `CCC1(c2cccc(-c3ccnc(C)c3)c2)C2=C(CC(C)(C)NC2=O)Nc2n[nH]c(C(F)F)c21` (centres unmarked) [Compound 949169], the IC50 in test [1] (setting [3]) was no more than 100 nM; in test [1] (setting [5]), 100 to 1000 nM; in test [2] (setting [4]), no more than 100 nM; in test [2] (setting [6]) it was 1000 to 5000 nM.
As to `CCC1(c2cccc(-c3cn(C)nc3C)c2)C2=C(CC(C)(C)NC2=O)Nc2n[nH]c(C(F)F)c21` (centres unmarked) [Compound 949170], the IC50 in test [1] (setting [3]) and in test [2] (setting [4]) was no more than 100 nM throughout.
